{
  "source": "patent US20050282911A1",
  "about": "“Memantine for the prevention or reduction of suicidality and for treatment of major depression associated with suicidality” (priority 2003, published 2005)",
  "test_system": "patients with major depressive disorder (MDD)",
  "test": "Open-label, flexible dose, 12-week study of memantine in major depressive disorder (MEM-MD-09): efficacy",
  "assay_type": "in vivo, human",
  "design": "CGI-I mean score: scale not given here",
  "settings": "for CGI-I mean score / Mean Change from Baseline in CGI-S / Mean Change from Baseline in HAM-D / Mean Change from Baseline in MADRS: ITT Population; for Mean Change from Baseline in CGI-S: baseline 4.3; for Mean Change from Baseline in HAM-D: baseline 30.0; for Mean Change from Baseline in MADRS: baseline 31.9",
  "from_the_text": "The present study was a single-center, open-label, flexible dose, 12-week study designed to provide a preliminary assessment of the efficacy and safety of memantine in patients with major depressive disorder (MDD). In order to assess the efficacy of treatment on depressive symptomatology, the primary efficacy assessment was the Montgomery Depression Rating Scale (MADRS). Secondary efficacy assessments included the Hamilton Depression Rating Scale (HAM-D), the Clinical Global Impressions—Severity Scale (CGI-S), the Clinical Global Impressions—Improvement Scale (CGI-I), the Patient Global Evaluation (PGE), and the Quality of Life Scale (QOL).\nStudy Design. The study was designed as a single-center, open-label, flexible dose 12-week study. Memantine was to be administered at 20 mg/day (10 mg b.i.d.) (titrated over a 4 week period), and, if warranted, up-titrated to a maximum of 40 mg/day (20 mg b.i.d.) (titrated in increments of 10 mg/day after Week 4).\nEntrance Criteria. Criteria for enrollment were as follows: (i) male or female outpatients between 18 and 80 years of age at screening; (ii) diagnosis of MDD consistent with DSM-IV; (iii) Montgomery Asberg Depression Rating Scale (MADRS) score of 22 or greater; and CGI severity score of 4 or greater. None of the patients had attempted suicide or were diagnosed as being at risk for committing suicide.\nEndpoints. The primary endpoint was improvement according to Montgomery Asberg Depression Rating Scale (MADRS). Secondary endpoints were improvements according to the Hamilton Depression Rating Scale (HAM-D), the Clinical Global Impressions-Severity Scale (CGI-S), the Clinical Global Impressions-Improvement Scale (CGI-I), Patient Global Evaluation (PGE), and Quality of Life Scale (QOL).\nMADRS. MADRS is either self-administered (MADRS-S) or interviewer administered evaluation of symptoms of depression in adults. MADRS evaluates ten areas of depressive symptomatology: apparent sadness, reported sadness, inner tension, reduced sleep, reduced appetite, concentration difficulties, lassitude, inability to feel, pessimistic thoughts, and suicidal thoughts. Each area is rated on a seven-point scale (0-6).\nMADRS was administered to each of the study participants at baseline, and weeks 1, 2, 3, 4, 6, 8, 10 and 12.\nHAM-D. HAM-D criteria were assessed at weeks 1, 2, 4, 8 and 12. HAM-D is a 24-item scale that evaluates depressed mood, vegetative and cognitive symptoms of depression, and comorbid anxiety symptoms. It provides ratings on current DSM-IV symptoms of depression, with the exceptions of hypersomnia, increased appetite, and concentration/indecision. There are several ways of analyzing HAM-D. According to one analysis, the first 17-items are rated on either a 5-point (0-4) or a 3-point (0-2) scale. In general, the 5-point scale items use a rating of 0=absent; 1=doubtful to mild; 2=mild to moderate; 3=moderate to severe; 4=very severe. A rating of 4 is usually reserved for extreme symptoms. The 3-point scale items used a rating of 0=absent; 1=probable or mild; 2=definite. The second analysis uses the same scale to rate the first 21 items, and the third analysis uses the scale to rate all 24 items. All three analyses were used in the present study and used statistically in the results.\nResponse to medication (i.e., memantine) was defined as a reduction in the HAM-D 24 score of 50%, while remission was defined as a reduction in the HAM-D total score to 7 or less.\nDSM-IV. DSM-IV diagnostic criteria were determined at week 1 and again at the end of the study. […]",
  "data": [
    {"smiles": "CC12CC3CC(C)(C1)CC(N)(C3)C2.Cl", "note": "[Memantine, 1-amino-3,5-dimethyladamantane hydrochloride]", "values": [
      {"measurement": "HAM-D ECDEU combination (cognitive disturbance factor)", "setting": "12 week period", "value": "improved"},
      {"measurement": "shift in severity ranking (CGI-S)", "setting": "12 week period, with the exception of one patient", "value": "improved to “mildly depressed” or to “not depressed”"},
      {"measurement": "HAM-D item 8, MADRS item 6 and DSM-IV criterion “h” (concentration, cognitive disturbance)", "setting": "12 week treatment period", "value": "improved"},
      {"measurement": "reduction in MADRS and HAM-D (17-, 21-, and 24-question versions) at endpoint", "setting": "LOCF analyses, endpoint", "value": "approximately 18 points"},
      {"measurement": "CGI-I mean score", "setting": "Week 1, LOCF", "value": 2.7},
      {"measurement": "Mean Change from Baseline in CGI-S", "setting": "Week 1, LOCF", "value": "−0.5"},
      {"measurement": "Mean Change from Baseline in HAM-D", "setting": "Week 1, LOCF", "value": "−6.1"},
      {"measurement": "Mean Change from Baseline in MADRS", "setting": "Week 1, LOCF", "value": "−7.9"},
      {"measurement": "CGI-I mean score", "setting": "Week 1, OC", "value": 2.7},
      {"measurement": "Mean Change from Baseline in CGI-S", "setting": "Week 1, OC", "value": "−0.7"},
      {"measurement": "Mean Change from Baseline in HAM-D", "setting": "Week 1, OC", "value": "−8.2"},
      {"measurement": "Mean Change from Baseline in MADRS", "setting": "Week 1, OC", "value": "−10.5"},
      {"measurement": "CGI-I mean score", "setting": "Week 2, LOCF", "value": 2.8},
      {"measurement": "Mean Change from Baseline in CGI-S", "setting": "Week 2, LOCF", "value": "−0.6"},
      {"measurement": "Mean Change from Baseline in HAM-D", "setting": "Week 2, LOCF", "value": "−11.8"},
      {"measurement": "Mean Change from Baseline in MADRS", "setting": "Week 2, LOCF", "value": "−12.1"},
      {"measurement": "CGI-I mean score", "setting": "Week 2, OC", "value": 2.8},
      {"measurement": "Mean Change from Baseline in CGI-S", "setting": "Week 2, OC", "value": "−0.6"},
      {"measurement": "Mean Change from Baseline in HAM-D", "setting": "Week 2, OC", "value": "−11.8"},
      {"measurement": "Mean Change from Baseline in MADRS", "setting": "Week 2, OC", "value": "−12.1"},
      {"measurement": "CGI-I mean score", "setting": "Week 3, LOCF", "value": 2.4},
      {"measurement": "Mean Change from Baseline in CGI-S", "setting": "Week 3, LOCF", "value": "−0.9"},
      {"measurement": "Mean Change from Baseline in MADRS", "setting": "Week 3, LOCF", "value": "−14.3"},
      {"measurement": "CGI-I mean score", "setting": "Week 3, OC", "value": 2.3},
      {"measurement": "Mean Change from Baseline in CGI-S", "setting": "Week 3, OC", "value": "−1.0"},
      {"measurement": "Mean Change from Baseline in MADRS", "setting": "Week 3, OC", "value": "−14.7"},
      {"measurement": "CGI-I mean score", "setting": "Week 4, LOCF", "value": 2.3},
      {"measurement": "Mean Change from Baseline in CGI-S", "setting": "Week 4, LOCF", "value": "−1.3"},
      {"measurement": "Mean Change from Baseline in HAM-D", "setting": "Week 4, LOCF", "value": "−16.8"},
      {"measurement": "Mean Change from Baseline in MADRS", "setting": "Week 4, LOCF", "value": "−15.6"},
      {"measurement": "CGI-I mean score", "setting": "Week 4, OC", "value": 2.1},
      {"measurement": "Mean Change from Baseline in CGI-S", "setting": "Week 4, OC", "value": "−1.4"},
      {"measurement": "Mean Change from Baseline in HAM-D", "setting": "Week 4, OC", "value": "−20.8"},
      {"measurement": "Mean Change from Baseline in MADRS", "setting": "Week 4, OC", "value": "−17.0"},
      {"measurement": "CGI-I mean score", "setting": "Week 6, LOCF", "value": 2.4},
      {"measurement": "Mean Change from Baseline in CGI-S", "setting": "Week 6, LOCF", "value": "−1.3"},
      {"measurement": "Mean Change from Baseline in MADRS", "setting": "Week 6, LOCF", "value": "−15.0"},
      {"measurement": "CGI-I mean score", "setting": "Week 6, OC", "value": 2.4},
      {"measurement": "Mean Change from Baseline in CGI-S", "setting": "Week 6, OC", "value": "−1.3"},
      {"measurement": "Mean Change from Baseline in MADRS", "setting": "Week 6, OC", "value": "−15.0"},
      {"measurement": "CGI-I mean score", "setting": "Week 8, LOCF", "value": 2.0},
      {"measurement": "Mean Change from Baseline in CGI-S", "setting": "Week 8, LOCF", "value": "−1.5"},
      {"measurement": "Mean Change from Baseline in HAM-D", "setting": "Week 8, LOCF", "value": "−16.8"},
      {"measurement": "Mean Change from Baseline in MADRS", "setting": "Week 8, LOCF", "value": "−18.6"},
      {"measurement": "CGI-I mean score", "setting": "Week 8, OC", "value": 1.9},
      {"measurement": "Mean Change from Baseline in CGI-S", "setting": "Week 8, OC", "value": "−1.6"},
      {"measurement": "Mean Change from Baseline in HAM-D", "setting": "Week 8, OC", "value": "−19.0"},
      {"measurement": "Mean Change from Baseline in MADRS", "setting": "Week 8, OC", "value": "−20.4"},
      {"measurement": "CGI-I mean score", "setting": "Week 10, LOCF", "value": 2.1},
      {"measurement": "Mean Change from Baseline in CGI-S", "setting": "Week 10, LOCF", "value": "−1.8"},
      {"measurement": "Mean Change from Baseline in MADRS", "setting": "Week 10, LOCF", "value": "−18.5"},
      {"measurement": "CGI-I mean score", "setting": "Week 10, OC", "value": 2.3},
      {"measurement": "Mean Change from Baseline in CGI-S", "setting": "Week 10, OC", "value": "−1.6"},
      {"measurement": "Mean Change from Baseline in MADRS", "setting": "Week 10, OC", "value": "−16.7"},
      {"measurement": "CGI-I mean score", "setting": "Week 12, LOCF", "value": 2.1},
      {"measurement": "Mean Change from Baseline in CGI-S", "setting": "Week 12, LOCF", "value": "−1.5"},
      {"measurement": "Mean Change from Baseline in HAM-D", "setting": "Week 12, LOCF", "value": "−17.8"},
      {"measurement": "Mean Change from Baseline in MADRS", "setting": "Week 12, LOCF", "value": "−18.5"},
      {"measurement": "CGI-I mean score", "setting": "Week 12, OC", "value": 2.3},
      {"measurement": "Mean Change from Baseline in CGI-S", "setting": "Week 12, OC", "value": "−1.3"},
      {"measurement": "Mean Change from Baseline in HAM-D", "setting": "Week 12, OC", "value": "−16.0"},
      {"measurement": "Mean Change from Baseline in MADRS", "setting": "Week 12, OC", "value": "−16.7"},
      {"measurement": "overall impression of improvement (CGI-I)", "setting": "after 12 weeks", "value": "overall impression of improvement as measured using CGI-I in all patients with the exception of one"},
      {"measurement": "DSM-IV checklist: degree of symptomology", "setting": "all DSM-IV categories, end of study", "value": "reduction in the degree of symptomology in all DSM-IV categories"},
      {"measurement": "improvement on the primary and all secondary efficacy variables", "setting": "baseline to Week 12, LOCF and OC approaches", "value": "Significant improvement"},
      {"measurement": "onset of therapeutic benefit in the treatment of MDD", "setting": "eight patients with MDD, first assessment", "value": 1, "unit": "week"},
      {"measurement": "patients considered “Very Much Improved” or “Much Improved” as measured by the CGI-I", "setting": "end of Week 8", "value": "6 of 7"},
      {"measurement": "patients responded to treatment, as measured by the MADRS and the HAM-D", "setting": "end of Week 8, responder defined as 50% improvement from baseline", "value": "5 of the 7"},
      {"measurement": "DSM-IV checklist: categories of appetite and agitation/retardation", "setting": "end of study", "value": "complete remission of symptoms in all patients"},
      {"measurement": "overall therapeutic response compared to citalopram and escitalopram", "setting": "memantine 20-40 mg/day, comparison with prior study SCT-MD-01", "value": "larger magnitude and faster onset of overall therapeutic response"},
      {"measurement": "appetite items HAM-D 12, MADRS item 5 and DSM-IV item “c”", "setting": "overall scores versus baseline", "value": "decrease from baseline"},
      {"measurement": "HAM-D items 1, 2, 3 and 7", "setting": "specific items chosen for analysis", "value": "positive change"},
      {"measurement": "score of item 3 of HAM-D (suicide)", "setting": "throughout visit 8", "value": "steady improvement"},
      {"measurement": "patients meeting criteria as CGI-I responders", "setting": "week 12", "value": 62.5, "unit": "%"},
      {"measurement": "mean change from baseline to endpoint on the HAM-D", "setting": "week 12, printed without sign", "value": "about 17.8"},
      {"measurement": "mean change from baseline to endpoint on the MADRS", "setting": "week 12, printed without sign", "value": "about 18.5"},
      {"measurement": "HAM-D item combinations for melancholy, anxiety, psychomotor retardation and insomnia", "setting": "week 12 from baseline", "value": "improvement"}
    ]}
  ]
}
